Consider one compound from patent publication US20100267798A1, “PHARMACEUTICAL FORMULATIONS AND USE THEREOF IN THE PREVENTION OF STROKE, DIABETES AND/OR CONGESTIVE HEART FAILURE” (AVENTS PHARMA DEUTSCHLAND GMBH, priority 1999, published 2010).

The subject of the assay is participants at high risk for cardiovascular events. In words: Large-scale clinical trial of ramipril versus placebo in reducing cardiovascular events. It counts as in vivo, human. As for the experimental part:
A large-scale clinical trial was designed to examine the effect of the ACE inhibitor ramipril versus placebo in reducing cardiovascular events.
The study was conducted in 267 centres in 19 countries over a six year period and included 9,541 participants who are at high risk for cardiovascular events due to a history of previous ischaemic heart disease, stroke, peripheral arterial disease or individuals with diabetes.
The systolic blood pressure at inclusion of the patients was on average 138 mm Hg and thus the patients were normotensive at study start. After one month of therapy with either ramipril or placebo, the systolic blood pressure had decreased by 5.48 mm Hg and 1.59 mm Hg, respectively.
The primary endpoint of the study was myocardial infarction (MI), stroke and cardiovascular (CV) death (mortality).

The structures appear in SMILES notation.

`CCOC(=O)[C@H](CCc1ccccc1)N[C@@H](C)C(=O)N1[C@H](C(=O)O)C[C@@H]2CCC[C@@H]21` [ramipril]: for the setting “after one month of therapy, normotensive patients, on average 138 mm Hg at inclusion”, the “decrease in systolic blood pressure” value was 5.48 mm Hg. Also, the “reduction in the need for revascularisation procedures and diabetic complications” value (patients taking ramipril versus placebo) was “between a fourth and a fifth”. For the setting “patients taking ramipril, study stopped early”, the “reduction in the combined endpoint of cardiovascular deaths, heart attacks and strokes” value is given as “very clear reduction”. Moreover, the “reduction in the number of patients who developed diabetes” value (ramipril group versus placebo) was found to be 36%. Also, the “reduction in the number of patients who developed CHF” value (ramipril group versus placebo, no signs or symptoms of CHF at study start) is 21%. Besides, where the note is “ramipril group versus placebo, patients normotensive when recruited”, the “reduction in the number of patients who developed a stroke” value was 32%.
